Laboratory results from patent US8802597B2, “Herbicidal pyrimidines” (E I du Pont de Nemours and Company, priority 2003, dated 2014).
Like-named read-outs stand apart in the source and are kept apart here.

Columns and labels:
Assay type in all cases: in vivo
wild oat (Avena fatua) = assay: Test B postemergence; settings: Avena fatua, post-emergence
Summary of the method: (§1)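 Visual injury scored 0 (no effect) to 100 (complete control) versus untreated controls after 13 to 15 days in greenhouse. Treatments were pre- or postemergence sprays of surfactant-containing solvent formulations; postemergence plants at 1- to 4-leaf stage, 2 to 18 cm.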

[1] = test system: blackgrass (Alopecurus myosuroides); assay: Test B postemergence; settings: Alopecurus myosuroides, post-emergence
Summary of the method: as §1

[2] = test system: duck salad (Heteranthera limosa); assay: Test B flooded paddy test; settings: Heteranthera limosa, Flood, 1000 g ai/ha; scale 0 to 100; read-out: Plant response rating, Ducksalad
Summary of the method: (§2)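 Plants were grown to the 2-leaf stage before treatment, then kept in a greenhouse for 13 to 15 days. Injury was rated visually against untreated controls on a 0 to 100 scale, where 0 is no effect and 100 is complete control.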

rice (Oryza sativa) = assay: Test B flooded paddy test; settings: Oryza sativa, Flood, 1000 g ai/ha; scale 0 to 100; read-out: Plant response rating, Rice
Summary of the method: as §2

[3] = test system: umbrella sedge (Cyperus difformis); assay: Test B flooded paddy test; settings: Cyperus difformis, Flood, 1000 g ai/ha; scale 0 to 100; read-out: Plant response rating, Sedge, Umbrella
Summary of the method: as §2

[4] = test system: barnyardgrass (Echinochloa crus-galli); assay: Test B flooded paddy test; settings: Echinochloa crus-galli, Flood, 1000 g ai/ha; scale 0 (no effect) to 100 (complete control); read-out: Plant response rating, Barnyardgrass
Summary of the method: as §2

[5] = test system: wheat (Triticum aestivum); assay: Test B pre/postemergence; settings: Triticum aestivum; for plant injury at 500 g/ha: 500 g ai/ha
Summary of the method: as §1

corn (Zea mays) = assay: Test B pre/postemergence; settings: Zea mays
Summary of the method: as §1

[6] = test system: velvetleaf (Abutilon theophrasti); assay: Test B pre/postemergence; settings: Abutilon theophrasti; for pest or weed control at 125 g/ha: 125 g ai/ha; for pest or weed control at 500 g/ha: 500 g ai/ha
Summary of the method: as §1

[7] = test system: pigweed (Amaranthus retroflexus); assay: Test B pre/postemergence; settings: Amaranthus retroflexus; for pest or weed control at 125 g/ha: 125 g ai/ha; for pest or weed control at 500 g/ha: 500 g ai/ha
Summary of the method: as §1

[8] = test system: lambsquarters (Chenopodium album); assay: Test B pre/postemergence; settings: Chenopodium album; for pest or weed control at 125 g/ha: 125 g ai/ha; for pest or weed control at 500 g/ha: 500 g ai/ha
Summary of the method: as §1

[9] = test system: morningglory (Ipomoea coccinea); assay: Test B pre/postemergence; settings: Ipomoea; for pest or weed control at 125 g/ha: 125 g ai/ha; for pest or weed control at 500 g/ha: 500 g ai/ha
Summary of the method: as §1

[10] = test system: crabgrass (Digitaria sanguinalis); assay: Test B pre/postemergence; settings: Digitaria sanguinalis; for pest or weed control at 125 g/ha: 125 g ai/ha; for pest or weed control at 500 g/ha: 500 g ai/ha
Summary of the method: as §1

[11] = test system: giant foxtail (Setaria faberii); assay: Test B pre/postemergence; settings: Setaria faberi; for pest or weed control at 125 g/ha: 125 g ai/ha; for pest or weed control at 500 g/ha: 500 g ai/ha
Summary of the method: as §1

[12] = test system: barnyardgrass (Echinochloa crus-galli); assay: Test B pre/postemergence; settings: Echinochloa crus-galli; for pest or weed control at 125 g/ha: 125 g ai/ha; for pest or weed control at 500 g/ha: 500 g ai/ha
Summary of the method: as §1

[13] = test system: Surinam grass (Brachiaria decumbens); assay: Test B pre/postemergence; settings: Urochloa decumbens; for pest or weed control at 125 g/ha: 125 g ai/ha; for pest or weed control at 500 g/ha: 500 g ai/ha
Summary of the method: as §1

[14] = test system: cocklebur (Xanthium strumarium); assay: Test B pre/postemergence; settings: Xanthium strumarium; for pest or weed control at 125 g/ha: 125 g ai/ha; for pest or weed control at 500 g/ha: 500 g ai/ha
Summary of the method: as §1

SMILES: CNc1nc(C2CC2)nc(C(=O)OC)c1Br [Compound 5]
- pest or weed control at 125 g/ha (wild oat (Avena fatua); 125 g ai/ha, scale 0 to 100 (0 no effect, 100 complete control), read-out: Oat, Wild plant response rating): 40%
- pest or weed control at 500 g/ha (wild oat (Avena fatua); 500 g ai/ha, scale 0 to 100, read-out: Plant response rating, Oat, Wild): 60%
- pest or weed control at 125 g/ha ([1]; 125 g ai/ha, scale 0 to 100 (0 no effect, 100 complete control), read-out: Blackgrass plant response rating): 70%
- pest or weed control at 500 g/ha ([1]; 500 g ai/ha, scale 0 to 100, read-out: Plant response rating, Blackgrass): 80%
- pest or weed control at 1000 g/ha [2]: 90%
- plant injury at 1000 g/ha (rice (Oryza sativa)): 0%
- pest or weed control at 1000 g/ha [3]: 90%
- pest or weed control at 1000 g/ha [4]: 50%
- plant injury at 125 g/ha ([5]; post-emergence, Postemergence, 125 g ai/ha, scale 0 to 100 (0 no effect, 100 complete control), read-out: Wheat plant response rating): 50%
- plant injury at 500 g/ha ([5]; post-emergence, Postemergence, scale 0 to 100, read-out: Plant response rating, Wheat): 60%
- plant injury at 500 g/ha ([5]; pre-emergence, Preemergence, scale 0 to 100 (0 no effect, 100 complete control), read-out: Wheat plant response rating): 50%
- plant injury at 125 g/ha (corn (Zea mays); post-emergence, Postemergence, 125 g ai/ha, scale 0 to 100 (0 no effect, 100 complete control), read-out: Corn plant response rating): 30%
- Corn plant response rating (crop injury, 0 = no effect, 100 = complete kill) at 500 g/ha (corn (Zea mays); post-emergence, Postemergence, 500 g ai/ha, scale 0 to 100): 90%
- Corn plant response rating (crop injury, 0 = no effect, 100 = complete kill) at 125 g/ha (corn (Zea mays); pre-emergence, Preemergence, 125 g ai/ha, scale 0 to 100 (0 no effect, 100 complete control)): 0%
- plant injury at 500 g/ha (corn (Zea mays); pre-emergence, Preemergence, 500 g ai/ha, scale 0 to 100 (0 no effect, 100 complete control), read-out: Corn plant response rating): 70%
- pest or weed control at 125 g/ha ([6]; post-emergence, Postemergence, scale 0 to 100 (0 no effect, 100 complete control), read-out: Velvetleaf plant response rating): 70%
- pest or weed control at 500 g/ha ([6]; post-emergence, Postemergence, scale 0 to 100, read-out: Plant response rating, Velvetleaf): 90%
- pest or weed control at 125 g/ha ([6]; pre-emergence, Preemergence, scale 0 to 100 (0 no effect, 100 complete control), read-out: Plant response rating, Velvetleaf): 70%
- pest or weed control at 500 g/ha ([6]; pre-emergence, Preemergence, scale 0 to 100 (0 no effect, 100 complete control), read-out: Velvetleaf plant response rating): 90%
- pest or weed control at 125 g/ha ([7]; post-emergence, Postemergence, scale 0 to 100 (0 no effect, 100 complete control), read-out: Pigweed plant response rating): 90%
- pest or weed control at 500 g/ha ([7]; post-emergence, Postemergence, scale 0 to 100, read-out: Plant response rating, Pigweed): 100%
- pest or weed control at 125 g/ha ([7]; pre-emergence, Preemergence, scale 0 to 100 (0 no effect, 100 complete control), read-out: Plant response rating, Pigweed): 90%
- pest or weed control at 500 g/ha ([7]; pre-emergence, Preemergence, scale 0 to 100 (0 no effect, 100 complete control), read-out: Pigweed plant response rating): 90%
- pest or weed control at 125 g/ha ([8]; post-emergence, Postemergence, scale 0 to 100 (0 no effect, 100 complete control), read-out: Lambsquarters plant response rating): 100%
- pest or weed control at 500 g/ha ([8]; post-emergence, Postemergence, scale 0 to 100, read-out: Plant response rating, Lambsquarters): 100%
- pest or weed control at 125 g/ha ([8]; pre-emergence, Preemergence, scale 0 to 100 (0 no effect, 100 complete control), read-out: Plant response rating, Lambsquarters): 90%
- pest or weed control at 500 g/ha ([8]; pre-emergence, Preemergence, scale 0 to 100 (0 no effect, 100 complete control), read-out: Lambsquarters plant response rating): 100%
- pest or weed control at 125 g/ha ([9]; post-emergence, Postemergence, scale 0 to 100 (0 no effect, 100 complete control), read-out: Morningglory plant response rating): 100%
- pest or weed control at 500 g/ha ([9]; post-emergence, Postemergence, scale 0 to 100, read-out: Plant response rating, Morningglory): 100%
- pest or weed control at 125 g/ha ([9]; pre-emergence, Preemergence, scale 0 to 100 (0 no effect, 100 complete control), read-out: Plant response rating, Morningglory): 70%
- pest or weed control at 500 g/ha ([9]; pre-emergence, Preemergence, scale 0 to 100 (0 no effect, 100 complete control), read-out: Morningglory plant response rating): 80%
- pest or weed control at 125 g/ha ([10]; post-emergence, Postemergence, scale 0 to 100 (0 no effect, 100 complete control), read-out: Crabgrass plant response rating): 50%
- pest or weed control at 500 g/ha ([10]; post-emergence, Postemergence, scale 0 to 100, read-out: Plant response rating, Crabgrass): 90%
- pest or weed control at 125 g/ha ([10]; pre-emergence, Preemergence, scale 0 to 100 (0 no effect, 100 complete control), read-out: Plant response rating, Crabgrass): 20%
- pest or weed control at 500 g/ha ([10]; pre-emergence, Preemergence, scale 0 to 100 (0 no effect, 100 complete control), read-out: Crabgrass plant response rating): 70%
- pest or weed control at 125 g/ha ([11]; post-emergence, Postemergence, scale 0 to 100 (0 no effect, 100 complete control), read-out: Foxtail, Giant plant response rating): 40%
- pest or weed control at 500 g/ha ([11]; post-emergence, Postemergence, scale 0 to 100, read-out: Plant response rating, Foxtail, Giant): 50%
- pest or weed control at 125 g/ha ([11]; pre-emergence, Preemergence, scale 0 to 100 (0 no effect, 100 complete control), read-out: Plant response rating, Foxtail, Giant): 0%
- pest or weed control at 500 g/ha ([11]; pre-emergence, Preemergence, scale 0 to 100 (0 no effect, 100 complete control), read-out: Foxtail, Giant plant response rating): 10%
- pest or weed control at 125 g/ha ([12]; post-emergence, Postemergence, scale 0 to 100 (0 no effect, 100 complete control), read-out: Barnyardgrass plant response rating): 50%
- pest or weed control at 500 g/ha ([12]; post-emergence, Postemergence, scale 0 to 100, read-out: Plant response rating, Barnyardgrass): 90%
- pest or weed control at 125 g/ha ([12]; pre-emergence, Preemergence, scale 0 to 100 (0 no effect, 100 complete control), read-out: Plant response rating, Barnyardgrass): 10%
- pest or weed control at 500 g/ha ([12]; pre-emergence, Preemergence, scale 0 to 100 (0 no effect, 100 complete control), read-out: Barnyardgrass plant response rating): 30%
- pest or weed control at 125 g/ha ([13]; post-emergence, Postemergence, scale 0 to 100 (0 no effect, 100 complete control), read-out: Surinam Grass plant response rating): 50%
- pest or weed control at 500 g/ha ([13]; post-emergence, Postemergence, scale 0 to 100, read-out: Plant response rating, Surinam Grass): 80%
- pest or weed control at 125 g/ha ([13]; pre-emergence, Preemergence, scale 0 to 100 (0 no effect, 100 complete control), read-out: Plant response rating, Surinam Grass): 0%
- pest or weed control at 500 g/ha ([13]; pre-emergence, Preemergence, scale 0 to 100 (0 no effect, 100 complete control), read-out: Surinam Grass plant response rating): 10%
- pest or weed control at 125 g/ha ([14]; post-emergence, Postemergence, scale 0 to 100 (0 no effect, 100 complete control), read-out: Cocklebur plant response rating): 80%
- pest or weed control at 500 g/ha ([14]; post-emergence, Postemergence, scale 0 to 100, read-out: Plant response rating, Cocklebur): 100%
- pest or weed control at 125 g/ha ([14]; pre-emergence, Preemergence, scale 0 to 100 (0 no effect, 100 complete control), read-out: Plant response rating, Cocklebur): 70%
- pest or weed control at 500 g/ha ([14]; pre-emergence, Preemergence, scale 0 to 100 (0 no effect, 100 complete control), read-out: Cocklebur plant response rating): 80%
